In ChEMBL document CHEMBL4651402, “Screening of ~5500 FDA-approved drugs and clinical candidates for anti-SARS-CoV-2 activity” (2021):

System: SARS-CoV-2
Assay: microbe, parasite or virus in culture
Details: Severe acute respiratory syndrome coronavirus 2, Vero C1008, 48 h

| SMILES | IC50 | IC50 (read-out: pIC50 (converted)) |
| --- | --- | --- |
| COC(=O)[C@]12CCC(C)(C)C[C@H]1[C@H]1C(=O)C=C3[C@@]4(C)C=C(C#N)C(=O)C(C)(C)[C@@H]4CC[C@@]3(C)[C@]1(C)CC2 [BARDOXOLONE METHYL] | > 20 µM | > 20 µM |
| CN(C)Cc1c[nH]c2ccccc12 [GRAMINE] | > 20 µM | > 20 µM |
| CCN(CC)C(=O)N[C@@H]1CC2c3cccc4[nH]cc(c34)CC2N(C)C1 (stereo not given in full) | > 20 µM | > 20 µM |
| COc1ccc(-n2nc3c4c([nH]cc-3c2=O)CCCCC4)cc1 | > 20 µM | > 20 µM |
| CC1CC(C)C(=O)C(C(O)CC2CC(=O)NC(=O)C2)C1 (stereo not given) | > 20 µM | > 20 µM |
| CCOC(=O)/C=C/[C@H](C[C@@H]1CCNC1=O)NC(=O)[C@@H](CC(=O)[C@@H](NC(=O)c1cc(C)on1)C(C)C)Cc1ccc(F)cc1 | > 25.1 µM | > 25.1 µM |
| O=C(CN1C(=O)C2(CCCC2)NC[C@H]1c1cc(F)cc(F)c1)Nc1ccc2c(c1)C[C@@]1(C2)C(=O)Nc2ncccc21 [MK3207] | > 20 µM | > 20 µM |
| CCC(CC)C(c1ccc(Nc2nc3ccccc3s2)cc1)n1cncn1 (racemic) [TALAROZOLE] | > 20 µM | > 20 µM |
| Oc1ccc2c3c1O[C@H]1[C@@H](O)CC[C@@]4(O)[C@@H](C2)N(CC2CCC2)CC[C@]314 [NALBUPHINE] | > 50.1 µM | > 50.1 µM |
| CC1=C(O)C(=O)C=C2C1=CC=C1C3(C)CC[C@@]4(C)CC[C@@](C)(C(=O)O)C[C@H]4[C@]3(C)CC[C@@]21C (stereo not given in full) | > 20 µM | > 20 µM |
| CCOC(=O)[C@H](CCc1ccccc1)N[C@@H](C)C(=O)N1Cc2cc(OC)c(OC)cc2C[C@H]1C(=O)O [MOEXIPRIL] | > 20 µM | > 20 µM |
| Nc1ccccc1NC(=O)c1ccc(CNc2nccc(-c3cccnc3)n2)cc1 [MOCETINOSTAT] | > 20 µM | > 20 µM |
| NCCC(=O)N[C@@H](Cc1c[nH]cn1)C(=O)O [CARNOSINE] | > 20 µM | > 20 µM |
| CNC1(c2ccccc2Cl)CCCCC1=O (stereo not given) [KETAMINE] | > 20 µM | > 20 µM |
| CN1Cc2ccccc2[C@@H]2c3cccc4[nH]cc(c34)C[C@H]21 | > 20 µM | > 20 µM |
| CNCCCC1(c2ccccc2)OC(C)(C)c2ccccc21 (stereo not given) [TALOPRAM] | > 20 µM | > 20 µM |
| Cc1ccc2c(-c3ccccc3)nc(=O)n(C(C)C)c2c1 [PROQUAZONE] | > 20 µM | > 20 µM |
| CC(C(=O)O)c1ccc2c(c1)[nH]c1ccc(Cl)cc12 (stereo not given) [CARPROFEN] | > 20 µM | > 20 µM |
| O=C(O)CCCCCc1cccc2cncn12 | > 20 µM | > 20 µM |
| COc1cc2occc2c2oc(=O)ccc12 [ISOBERGAPTENE] | > 20 µM | > 20 µM |
| CCN(CC)C(=O)Nc1ccc(OCC(O)CNC(C)(C)C)c(C(C)=O)c1 (stereo not given) [CELIPROLOL] | > 20 µM | > 20 µM |
| Nc1c2ccccc2nc2ccccc12 [AMINACRINE] | > 20 µM | > 20 µM |

| SMILES | IC50 | IC50 (read-out: pIC50 (converted)) |
| --- | --- | --- |
| CC(C)[N+](C)(CCOC(=O)C1c2ccccc2Oc2ccccc21)C(C)C [PROPANTHELINE] | > 20 µM | > 20 µM |
| CCOC(=O)C1=C(CN2CCOCC2)NC(c2nccs2)=NC1c1ccc(F)cc1Br (stereo not given) | > 20 µM | > 20 µM |
| CCn1cc(C(=O)O)c(=O)c2cc3c(cc21)OCO3 [OXOLINIC ACID] | > 20 µM | > 20 µM |
| CCOC(=O)c1cnc2c(cnn2CC)c1NN=C(C)C [ETAZOLATE] | > 20 µM | > 20 µM |
| CCC(CCC(C)C1CCC2C3CC=C4CC(OC(C)=O)CCC4(C)C3CCC12C)C(C)C (stereo not given) | > 20 µM | > 20 µM |
| COc1ccc2c3c1O[C@H]1C[C@@H](O)C=C[C@@]31CCN(C)C2 [GALANTAMINE] | > 20 µM | > 20 µM |
| C[C@@H]1CC[C@]2(C(=O)O)CC[C@]3(C)C(=CCC4[C@@]5(C)CC[C@H](O)C(C)(C)C5CC[C@]43C)C2[C@H]1C (stereo not given in full) | > 20 µM | > 20 µM |
| CCN(CC)C(=O)/C(C#N)=C/c1cc(O)c(O)c([N+](=O)[O-])c1 [ENTACAPONE] | > 20 µM | > 20 µM |
| c1ccc(C2CN=C3NCCN32)cc1 (stereo not given) [IMAFEN] | > 20 µM | > 20 µM |
| COc1c(N2CCC/C(=C(\F)CN)C2)c(F)cc2c(=O)c(C(=O)O)cn(C3CC3)c12 [ACORAFLOXACIN] | > 20 µM | > 20 µM |
| O=C(O)c1cc(-c2ccccc2)nc2ccccc12 [CINCHOPHEN] | > 20 µM | > 20 µM |
| O=c1[nH]c(=O)n(C2CC(O)C(CO)O2)cc1Br (stereo not given) | > 20 µM | > 20 µM |
| CCCCCC(C)(O)/C=C/C1CCC(=O)C1CCCCCCC(=O)O (stereo not given) | > 20 µM | > 20 µM |
| CCCCOc1ccc(C(=O)CCN2CCCCC2)cc1 [DYCLONINE] | > 20 µM | > 20 µM |
| COc1cc(N)c(Cl)cc1C(=O)N[C@H]1CCNC[C@H]1OC | > 20 µM | > 20 µM |
| CCOc1ccccc1C(N)=O [ETHENZAMIDE] | > 20 µM | > 20 µM |
| CC(C)(N)Cc1ccccc1Cl [CLORTERMINE] | > 20 µM | > 20 µM |
| c1ccc(C2(c3ccccc3)OCC(C3CCCCN3)O2)cc1 (stereo not given) [DIOXADROL] | > 20 µM | > 20 µM |
| O=NN(CCCl)C(=O)NCCCl [CARMUSTINE] | > 20 µM | > 20 µM |
| ClCCN(Cc1ccccc1)Cc1ccccc1 | > 20 µM | > 20 µM |
| CC1CC2=CC(=O)CCC2C2CCC3(C)C(CCC3(C)O)C12 (stereo not given) | > 20 µM | > 20 µM |
| CC12CCC3C(CC[C@H]4CC(O)CCC34C)C1CCC2O (stereo not given in full) | > 20 µM | > 20 µM |

| SMILES | IC50 | IC50 (read-out: pIC50 (converted)) |
| --- | --- | --- |
| c1ccc2[nH]ncc2c1 [INDAZOLE] | > 20 µM | > 20 µM |
| CNCCC(Oc1ccc(C(F)(F)F)cc1)c1ccccc1 (stereo not given) [FLUOXETINE] | > 20 µM | > 20 µM |
| CCOC[C@]12Cc3cnn(-c4ccc(F)cc4)c3C=C1CCN(S(=O)(=O)c1ccc(C(F)(F)F)cc1)C2 [CORT 108297] | > 20 µM | > 20 µM |
| N#Cc1c[nH]cc1-c1cccc2c1OC(F)(F)O2 [FLUDIOXONIL] | > 20 µM | > 20 µM |
| CC(=O)NC(Cc1ccccc1)C(=O)O (stereo not given) [AFALANINE] | > 20 µM | > 20 µM |
| COc1cc(N)c(Cl)cc1C(=O)N[C@@H]1CCNC[C@@H]1OC [TICALOPRIDE] | > 20 µM | > 20 µM |
| CS(=O)(=O)CCNCc1ccc(-c2ccc3ncnc(Nc4ccc(OCc5cccc(F)c5)c(Cl)c4)c3c2)o1 [LAPATINIB] | > 20 µM | > 20 µM |
| O=c1[nH]c(=O)n([C@H]2C[C@H](O)[C@@H](CO)O2)cc1F [FLOXURIDINE] | > 20 µM | > 20 µM |
| CC(C)S(=O)(=O)n1c(N)nc2ccc(/C(=N\O)c3ccccc3)cc21 [ZINVIROXIME] | > 20 µM | > 20 µM |
| COc1cc([C@H]2Oc3cc([C@H]4Oc5cc(O)cc(O)c5C(=O)[C@@H]4O)ccc3O[C@@H]2CO)ccc1O [SILYBIN A] | > 20 µM | > 20 µM |
| CC(=O)N(c1onc(C)c1C)S(=O)(=O)c1ccc(N)cc1 [SULFISOXAZOLE ACETYL] | > 20 µM | > 20 µM |
| CC1CN(C)CC2Cc3c(ccc4ccccc34)OC12O (stereo not given) [NARANOL] | > 20 µM | > 20 µM |
| NS(=O)(=O)c1ccc(N2CCN(CC[C@H]3OCCc4ccccc43)CC2)cc1 | > 20 µM | > 20 µM |
| CCCOc1ccc2[nH]c(NC(=O)OC)nc2c1 [OXIBENDAZOLE] | > 20 µM | > 20 µM |
| CCC[C@@]1(CCc2ccccc2)CC(O)=C([C@H](CC)c2cccc(NS(=O)(=O)c3ccc(C(F)(F)F)cn3)c2)C(=O)O1 | > 20 µM | > 20 µM |
| O=C(O)C1CCCN(CCC=C2c3ccccc3CCc3ccccc32)C1 (stereo not given) | > 20 µM | > 20 µM |
| CC(=O)NC(CCC(N)=O)C(=O)O (stereo not given) | > 20 µM | > 20 µM |
| COc1cc2c(cc1O)CC[C@@H]1[C@@H]2CC[C@]2(C)[C@@H](O)CC[C@@H]12 [2-METHOXYESTRADIOL] | > 20 µM | > 20 µM |
| COC(=O)C(N)CCCNC(=N)N[N+](=O)[O-] (stereo not given) | > 20 µM | > 20 µM |
| CN(C)CCCn1c(=O)n(-c2ccccc2)c2cc(Cl)ccc21 [CLODAZON] | > 20 µM | > 20 µM |
| C#Cc1cccc(Nc2ncnc3cc(OCCOC)c(OCCOC)cc23)c1 [ERLOTINIB] | > 20 µM | > 20 µM |
